Results reported in patent US6753442B1, “Amorphous nitric esters and their pharmaceutical compositions” (Nicox S.A., priority 1999, dated 2004).

Tests used:
[1] = Crystallinity loss (amorphization degree) by DSC; assay type: physicochemical; settings: result in words
Experimental: The amorphization degree can be measured by well known methods such as for example DSC, RX, IR, etc. […] The amorphization degree is determined by DSC as variation reduction) of the subtended area of the endothermic melting peak of the active principle. When the amorphization is complete, the melting peak characteristic of the active principle of formula (I) substantially disappears. This means that there is a variation of the enthalpy associated to the melting peak. The specific melting enthalpy ΔH (Joule/g) of the product as such and of the product treated with processes able to decrease the crystallinity (formulation) thereof, is determined by DSC analysis. The percent crystallinity loss is evaluated by the following equation: [formula] The scanning parameters adopted for the DSC analysis are the following: Scanning range: from 30° C. min. to 330° C. max Scanning rate: 10 K/min

[2] = Dissolution rate test in deionized water (USP XXIII apparatus, UV 235 nm); assay type: physicochemical; settings: for % of active principle passed in solution after 10 minutes: as stated in the text of the Examples; for % by weight of the active principle passed in solution: 30 mg active principle in 1000 ml deionized water, 37°C, 100 rpm
Experimental: The dissolution rate test is carried out in a dissolving equipment according to United States Pharmacopeia 23 by using a volume of deionized water of 1000 ml. The blade stirrer speed is of 100 rpm and the temperature is 37±0.5° C.
In a little glass vessel an exact amount of each sample is weighed so that it contains an amount of the active principle equal to 30 mg, which is directly introduced in the vessel containing the deionized water. At predetermined times, respectively of 5, 10, 15, 30, 45, 50, 60, 90 and 120 minutes from the beginning of the test, the amount of the nitroderivative compound passed in solution is determined, by measuring the concentration w/v (weigh/volume) thereof by UV spectrophotometry at the wave length of 235 nm, using a calibration line. The data are expressed as percentage of nitroderivative compound passed in solution in connection with the time. The amount of the compound of formula (I) passed in solution at the time of 10 minutes is at least about 10 times higher with respect to that of the nitroderivative compound not in amorphous form.
The dissolution rate of 3-(nitroxymethyl)phenyl ester of the acetylsalicylic acid as such and in the preparations containing it according to the examples described hereinafter, has been carried out in a dissolving equipment according to USP (United States Pharmacopeia) XXIII.
The test is carried out by using a volume of deionized water of 1000 ml. The angle rate of the blade stirrer is of 100 rpm and the temperature of 37±0.5° C.
In a little glass vessel an exact amount of each preparation to be tested is weighed so that it contains an amount of the active principle equal to 30 mg, which is directly introduced in the vessel. At predetermined times, respectively of 5, 10, 15, 30, 45, 50, 60, 90 and 120 minutes from the beginning of the test the amount of the compound passed in solution is determined, by measuring the concentration w/v thereof by UV spectrophotometry at the wave length of 235 nm, using a calibration line. The data are expressed as percentage of active principle passed in solution in connection with the time.

| SMILES | crystalline state of the active principle by DSC analysis [1] | % of active principle passed in solution after 10 minutes [2] [%] | % by weight of the active principle passed in solution ([2]; time 5 minutes, listed as Ex. 1) [% by weight] | % by weight of the active principle passed in solution ([2]; time 10 minutes, listed as Ex. 1) [% by weight] | % by weight of the active principle passed in solution ([2]; time 15 minutes, listed as Ex. 1) [% by weight] | % by weight of the active principle passed in solution ([2]; time 30 minutes, listed as Ex. 1) [% by weight] | % by weight of the active principle passed in solution ([2]; time 45 minutes, listed as Ex. 1) [% by weight] | % by weight of the active principle passed in solution ([2]; time 60 minutes, listed as Ex. 1) [% by weight] | % by weight of the active principle passed in solution ([2]; time 90 minutes, listed as Ex. 1) [% by weight] | % by weight of the active principle passed in solution ([2]; time 120 minutes, listed as Ex. 1) [% by weight] | % by weight of the active principle passed in solution ([2]; time 0 minutes) [% by weight] | % by weight of the active principle passed in solution ([2]; time 5 minutes) [% by weight] | % by weight of the active principle passed in solution ([2]; time 10 minutes) [% by weight] | % by weight of the active principle passed in solution ([2]; time 15 minutes) [% by weight] | % by weight of the active principle passed in solution ([2]; time 30 minutes) [% by weight] | % by weight of the active principle passed in solution ([2]; time 45 minutes) [% by weight] | % by weight of the active principle passed in solution ([2]; time 60 minutes) [% by weight] | % by weight of the active principle passed in solution ([2]; time 90 minutes) [% by weight] | % by weight of the active principle passed in solution ([2]; time 120 minutes) [% by weight] |
| --- | --- | --- | --- | --- | --- | --- | --- | --- | --- | --- | --- | --- | --- | --- | --- | --- | --- | --- | --- |
| CC(=O)Oc1ccccc1C(=O)Oc1cccc(CO[N+](=O)[O-])c1 [Example 1, 3-(nitroxymethyl)phenyl ester of the acetylsalicylic acid] | completely crystalline | 0.3 | 0.1 | 0.3 | 0.4 | 0.8 | 1.2 | 1.6 | 2.4 | 3.1 |  |  |  |  |  |  |  |  |  |
| CC(=O)Oc1ccccc1C(=O)Oc1cccc(CO[N+](=O)[O-])c1 [Example 7, 3-(nitroxymethyl)phenyl ester of the acetylsalicylic acid] | completely crystalline form | 0.5 |  |  |  |  |  |  |  |  | 0.0 | 0.3 | 0.5 | 0.8 | 1.5 | 2.2 | 2.7 | 4.0 | 5.2 |
